The NIST ThermoML archive (doi:10.1021/je050202g)
Numbers after ± are expanded uncertainties.

Legend:
[1] = cn = amount concentration of the nth substance listed, in mol/dm3; settings: 101.3 kPa, Liquid; for viscosity: Capillary tube (Ostwald / Ubbelohde) method
[2] = wn = mass fraction of the nth substance listed; settings: Wilhelmy Plate method
[3] = Wilhelmy Plate method

C1CNCCN1 [piperazine] + O
Settings	mass density, [1] [kg/m3]	surface tension liquid-gas, [2] [mN/m]	viscosity, [1] [mPa·s]
293.15 K, c1 = 0.623	1000.46 ± 2.5	–	1.26 ± 0.04
293.15 K, c1 = 1.006	1002.49 ± 2.5	–	1.52 ± 0.05
293.15 K, c1 = 1.49	1005.4 ± 2.4	–	1.87 ± 0.06
293.15 K, w1 = 0.043	–	71.7 ± 2.1	–
293.15 K, w1 = 0.086	–	70.1 ± 2	–
293.15 K, w1 = 0.129	–	69.3 ± 1.9	–
298.15 K, c1 = 0.623	999.37 ± 2.5	–	1.11 ± 0.04
298.15 K, c1 = 1.006	1001.3 ± 2.5	–	1.31 ± 0.04
298.15 K, c1 = 1.49	1004.11 ± 2.4	–	1.62 ± 0.05
298.15 K, c1 = 1.686	1005.39 ± 2.4	–	1.8 ± 0.06
303.15 K, c1 = 0.623	997.94 ± 2.5	–	0.98 ± 0.03
303.15 K, c1 = 1.006	999.79 ± 2.5	–	1.15 ± 0.04
303.15 K, c1 = 1.49	1002.47 ± 2.4	–	1.4 ± 0.04
303.15 K, c1 = 1.686	1003.66 ± 2.4	–	1.56 ± 0.05
313.15 K, c1 = 0.623	994.25 ± 2.5	–	0.79 ± 0.03
313.15 K, c1 = 1.006	996.03 ± 2.5	–	0.92 ± 0.03
313.15 K, c1 = 1.49	998.49 ± 2.4	–	1.09 ± 0.03
313.15 K, c1 = 1.686	999.49 ± 2.4	–	1.2 ± 0.04
313.15 K, w1 = 0.043	–	68.5 ± 2	–
313.15 K, w1 = 0.086	–	67.8 ± 1.9	–
313.15 K, w1 = 0.129	–	67.6 ± 1.9	–
323.15 K, c1 = 0.623	989.76 ± 2.5	–	0.65 ± 0.02
323.15 K, c1 = 1.006	991.53 ± 2.5	–	0.75 ± 0.02
323.15 K, c1 = 1.49	993.86 ± 2.4	–	0.88 ± 0.03
323.15 K, c1 = 1.686	994.74 ± 2.4	–	0.96 ± 0.03

O [water]
[3]
Settings	surface tension liquid-gas [mN/m]
293.15 K	72.7 ± 2.2
313.15 K	69.8 ± 2.1

O [water] + C1CNCCN1
[2], w2 = 0
Settings	surface tension liquid-gas [mN/m]
293.15 K	72.7 ± 2.2
313.15 K	69.8 ± 2.1
